Common to all, as to assay: Kinase panel
Holding throughout (type): biochemical

For one test, the target named is T1, Aurora-A(h) (Homo sapiens, UniProt O14965).
T1 construct: purchased Millipore KinaseProfiler
T1 sequence (O14965 1-403): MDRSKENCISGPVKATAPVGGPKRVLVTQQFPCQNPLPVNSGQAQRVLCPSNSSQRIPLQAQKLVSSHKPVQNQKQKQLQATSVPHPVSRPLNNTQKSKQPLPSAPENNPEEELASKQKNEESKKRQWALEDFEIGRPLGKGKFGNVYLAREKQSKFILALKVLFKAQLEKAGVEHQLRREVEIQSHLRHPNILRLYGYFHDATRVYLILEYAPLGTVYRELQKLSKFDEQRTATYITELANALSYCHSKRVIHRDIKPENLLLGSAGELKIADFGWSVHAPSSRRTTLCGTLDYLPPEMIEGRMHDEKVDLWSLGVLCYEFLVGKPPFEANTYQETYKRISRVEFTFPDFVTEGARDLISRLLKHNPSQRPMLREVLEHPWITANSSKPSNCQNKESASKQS

For a further test, the target named is T2, CaMKIδ(h) (Homo sapiens, UniProt Q8IU85).
T2 construct: purchased Millipore KinaseProfiler

The next test deals with T3, Flt3(h) (Homo sapiens, UniProt P36888).
T3 construct: purchased Millipore KinaseProfiler
T3 sequence (P36888 27-993): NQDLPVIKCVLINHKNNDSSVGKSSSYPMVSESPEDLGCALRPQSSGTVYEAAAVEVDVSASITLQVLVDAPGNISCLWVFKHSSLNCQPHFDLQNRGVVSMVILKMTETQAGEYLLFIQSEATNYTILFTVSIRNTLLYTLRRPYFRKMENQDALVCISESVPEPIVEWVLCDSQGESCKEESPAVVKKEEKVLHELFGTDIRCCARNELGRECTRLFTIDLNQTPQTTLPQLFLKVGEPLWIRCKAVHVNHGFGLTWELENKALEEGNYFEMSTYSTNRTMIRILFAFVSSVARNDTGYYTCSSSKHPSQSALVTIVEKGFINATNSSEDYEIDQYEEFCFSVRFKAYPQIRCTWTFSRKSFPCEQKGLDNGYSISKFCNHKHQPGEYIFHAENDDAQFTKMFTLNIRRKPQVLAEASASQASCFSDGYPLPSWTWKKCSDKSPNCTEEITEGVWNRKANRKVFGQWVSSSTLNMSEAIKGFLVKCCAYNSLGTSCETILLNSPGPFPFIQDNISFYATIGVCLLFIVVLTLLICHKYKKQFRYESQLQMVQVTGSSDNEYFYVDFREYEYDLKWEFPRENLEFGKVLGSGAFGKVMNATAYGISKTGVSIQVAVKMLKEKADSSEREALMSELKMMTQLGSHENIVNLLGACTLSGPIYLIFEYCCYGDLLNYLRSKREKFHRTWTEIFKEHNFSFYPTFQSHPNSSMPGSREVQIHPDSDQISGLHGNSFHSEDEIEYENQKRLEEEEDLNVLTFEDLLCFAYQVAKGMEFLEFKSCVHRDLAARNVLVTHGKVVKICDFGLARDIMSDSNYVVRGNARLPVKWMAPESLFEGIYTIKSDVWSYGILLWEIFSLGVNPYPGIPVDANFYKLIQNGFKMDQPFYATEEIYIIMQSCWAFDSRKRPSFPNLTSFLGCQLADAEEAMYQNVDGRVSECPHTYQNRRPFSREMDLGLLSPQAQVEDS

In a further test the target is T4, GRK7(h) (Homo sapiens, UniProt Q8WTQ7).
T4 construct: purchased Millipore KinaseProfiler
T4 sequence (Q8WTQ7 1-553): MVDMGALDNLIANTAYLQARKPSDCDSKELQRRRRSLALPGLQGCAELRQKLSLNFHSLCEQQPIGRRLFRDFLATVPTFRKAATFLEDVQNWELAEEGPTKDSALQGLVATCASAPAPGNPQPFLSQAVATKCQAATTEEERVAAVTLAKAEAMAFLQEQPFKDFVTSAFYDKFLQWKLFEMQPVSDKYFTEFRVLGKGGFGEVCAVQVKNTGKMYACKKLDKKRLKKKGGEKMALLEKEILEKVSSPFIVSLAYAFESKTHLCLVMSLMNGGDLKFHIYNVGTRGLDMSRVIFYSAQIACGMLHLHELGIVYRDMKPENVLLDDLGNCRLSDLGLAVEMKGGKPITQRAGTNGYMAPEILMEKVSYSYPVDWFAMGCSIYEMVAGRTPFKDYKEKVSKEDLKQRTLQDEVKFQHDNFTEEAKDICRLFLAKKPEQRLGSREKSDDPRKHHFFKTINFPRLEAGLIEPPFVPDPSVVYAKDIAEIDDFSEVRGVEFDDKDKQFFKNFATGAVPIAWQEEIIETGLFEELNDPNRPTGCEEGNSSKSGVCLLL

For another test, the target named is T5, Haspin(h) (Homo sapiens, UniProt Q8TF76).
T5 construct: purchased Millipore KinaseProfiler
T5 sequence (Q8TF76 1-798): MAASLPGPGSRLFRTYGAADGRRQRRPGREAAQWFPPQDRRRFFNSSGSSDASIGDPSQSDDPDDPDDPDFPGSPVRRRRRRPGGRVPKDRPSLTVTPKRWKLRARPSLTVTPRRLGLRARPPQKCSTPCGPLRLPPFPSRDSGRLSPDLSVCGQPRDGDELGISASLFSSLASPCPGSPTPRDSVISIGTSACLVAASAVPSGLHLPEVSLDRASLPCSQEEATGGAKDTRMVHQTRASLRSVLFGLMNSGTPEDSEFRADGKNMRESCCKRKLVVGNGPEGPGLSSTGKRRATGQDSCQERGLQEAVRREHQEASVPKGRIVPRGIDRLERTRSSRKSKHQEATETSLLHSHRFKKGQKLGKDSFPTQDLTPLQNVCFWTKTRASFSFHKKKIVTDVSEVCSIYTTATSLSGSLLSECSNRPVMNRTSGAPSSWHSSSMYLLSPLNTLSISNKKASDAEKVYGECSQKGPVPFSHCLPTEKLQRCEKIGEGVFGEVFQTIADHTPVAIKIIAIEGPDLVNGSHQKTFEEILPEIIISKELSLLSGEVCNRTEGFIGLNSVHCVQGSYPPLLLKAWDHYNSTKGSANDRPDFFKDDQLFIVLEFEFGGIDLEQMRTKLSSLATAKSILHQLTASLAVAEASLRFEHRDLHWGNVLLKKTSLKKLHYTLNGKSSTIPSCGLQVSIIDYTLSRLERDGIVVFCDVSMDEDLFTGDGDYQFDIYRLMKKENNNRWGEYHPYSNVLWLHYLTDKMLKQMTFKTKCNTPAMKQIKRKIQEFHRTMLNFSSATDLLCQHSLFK

Another test has as its target T6, PDGFRα(h) (Homo sapiens, UniProt P16234).
T6 construct: purchased Millipore KinaseProfiler

Read-outs that look alike come from different tables or passages of the source.

T6 sequence (P16234 24-1089): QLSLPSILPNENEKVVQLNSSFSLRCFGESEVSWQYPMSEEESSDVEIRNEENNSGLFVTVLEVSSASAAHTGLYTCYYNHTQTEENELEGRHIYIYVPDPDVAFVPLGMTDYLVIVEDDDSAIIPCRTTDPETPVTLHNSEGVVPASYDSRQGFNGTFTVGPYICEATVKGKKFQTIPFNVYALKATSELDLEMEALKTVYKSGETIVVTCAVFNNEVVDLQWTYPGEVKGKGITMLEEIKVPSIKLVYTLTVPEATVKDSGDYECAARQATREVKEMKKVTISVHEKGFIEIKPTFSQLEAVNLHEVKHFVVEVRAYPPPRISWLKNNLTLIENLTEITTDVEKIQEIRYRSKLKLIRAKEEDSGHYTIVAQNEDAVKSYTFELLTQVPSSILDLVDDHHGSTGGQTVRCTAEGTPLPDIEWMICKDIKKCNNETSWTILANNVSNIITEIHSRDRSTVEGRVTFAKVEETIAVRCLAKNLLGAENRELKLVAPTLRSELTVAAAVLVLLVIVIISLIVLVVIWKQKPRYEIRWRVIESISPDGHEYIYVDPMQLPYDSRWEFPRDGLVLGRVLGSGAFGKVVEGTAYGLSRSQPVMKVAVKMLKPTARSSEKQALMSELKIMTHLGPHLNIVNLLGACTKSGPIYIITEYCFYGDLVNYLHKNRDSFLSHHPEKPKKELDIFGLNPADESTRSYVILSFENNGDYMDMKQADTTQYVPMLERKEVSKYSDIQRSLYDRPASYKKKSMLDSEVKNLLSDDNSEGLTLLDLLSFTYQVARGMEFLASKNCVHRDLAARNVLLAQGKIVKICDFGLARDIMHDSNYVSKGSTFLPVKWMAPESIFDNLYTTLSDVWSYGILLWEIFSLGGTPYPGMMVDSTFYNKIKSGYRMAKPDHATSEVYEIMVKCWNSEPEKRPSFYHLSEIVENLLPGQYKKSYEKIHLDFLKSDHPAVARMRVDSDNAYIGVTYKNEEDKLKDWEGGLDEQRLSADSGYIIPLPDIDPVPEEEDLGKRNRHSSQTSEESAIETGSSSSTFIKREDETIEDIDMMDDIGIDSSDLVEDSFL
T2 sequence (Q8IU85 whole entry): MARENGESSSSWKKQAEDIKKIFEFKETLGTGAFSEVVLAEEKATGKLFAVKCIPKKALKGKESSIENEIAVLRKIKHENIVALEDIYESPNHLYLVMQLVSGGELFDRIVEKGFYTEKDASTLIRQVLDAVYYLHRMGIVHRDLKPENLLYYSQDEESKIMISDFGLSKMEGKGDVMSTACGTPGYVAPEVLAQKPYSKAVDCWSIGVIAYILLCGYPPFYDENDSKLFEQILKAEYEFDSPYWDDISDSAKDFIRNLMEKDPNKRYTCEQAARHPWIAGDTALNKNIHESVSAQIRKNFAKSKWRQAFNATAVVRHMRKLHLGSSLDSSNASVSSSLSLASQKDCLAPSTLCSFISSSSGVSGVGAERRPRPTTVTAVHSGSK

Consider `Cn1ncc(Cl)c1-c1cc(C(=O)N[C@H](CN)Cc2ccc(F)c(F)c2)oc1Cl` [GSK2141795], for which the inhibition at 0.5 µM at Aurora-A(h) (0.5 µM, read-out: % Inhibition) was -10%; at CaMKIδ(h) (0.5 µM, read-out: % Inhibition), 16%; at Flt3(h) (0.5 µM, read-out: % Inhibition), -12%; at GRK7(h) (0.5 µM, read-out: % Inhibition), 42%; at Haspin(h) (0.5 µM, read-out: % Inhibition), 76%; at PDGFRα(h) (0.5 µM, read-out: % Inhibition), -4%. Moreover, the inhibition at 10 µM at Aurora-A(h) (10 µM, read-out: % Inhibition) is 31%; on CaMKIδ(h) (10 µM, read-out: % Inhibition), 84%; at Flt3(h) (10 µM, read-out: % Inhibition) it was 22%; on GRK7(h) (10 µM, read-out: % Inhibition), 76%; at Haspin(h) (10 µM, read-out: % Inhibition) it was 101%; on PDGFRα(h) (10 µM, read-out: % Inhibition) it was -4%.
Turning to `Cn1ncc(Cl)c1-c1cc(C(=O)N[C@H](CN)Cc2cccc(F)c2)sc1Cl` [GSK2110183], the inhibition at 0.5 µM is 0% against Aurora-A(h); 18% against CaMKIδ(h); -8% against Flt3(h); 64% against GRK7(h); 46% against Haspin(h); -2% against PDGFRα(h). Further, the inhibition at 10 µM at Aurora-A(h) was 23%; against CaMKIδ(h), 78%; against Flt3(h) it was 24%; on GRK7(h), 96%; on Haspin(h), 90%; against PDGFRα(h), -2%.

One may read the inhibition as the change of the read-out against control, counted positive when it falls.

These data come from article PMC4076210, “Discovery of Novel AKT Inhibitors with Enhanced Anti-Tumor Effects in Combination with the MEK Inhibitor” (PLoS ONE, 2014).
